What was measured:
[1] = target: T1, native (untagged) murine PKCδ (Mus musculus, UniProt P28867); assay: FPCBA competition with probe 1, native PKCδ in HEK293 cells; type: binding; conditions: read-out: Cellular Ki for native PKCδ (95% confidence interval); probe 1 400 nM, BIM1 2 μM, 2 h at 37° C.
T1 construct: For coexpression of full-length unmodified PKC proteins with mVenus as an independent marker; expressed in transfected cells; host or cells: HEK293 (transient, pIRES-mVenus)

[2] = target: native (untagged) murine PKCθ (Mus musculus, UniProt Q02111); assay: FPCBA competition with probe 1, native PKCθ in HEK293 cells; type: binding; parameters: expressed in transfected cells; host or cells: HEK293 (ATCC CRL-1573), transient transfection with pIRES-mVenus carrying the PKC gene; conditions: read-out: Cellular Ki for native PKCθ (95% confidence interval); probe 1 400 nM, BIM1 2 μM, 2 h at 37° C.
Chain of native (untagged) murine PKCθ (Q02111 whole entry): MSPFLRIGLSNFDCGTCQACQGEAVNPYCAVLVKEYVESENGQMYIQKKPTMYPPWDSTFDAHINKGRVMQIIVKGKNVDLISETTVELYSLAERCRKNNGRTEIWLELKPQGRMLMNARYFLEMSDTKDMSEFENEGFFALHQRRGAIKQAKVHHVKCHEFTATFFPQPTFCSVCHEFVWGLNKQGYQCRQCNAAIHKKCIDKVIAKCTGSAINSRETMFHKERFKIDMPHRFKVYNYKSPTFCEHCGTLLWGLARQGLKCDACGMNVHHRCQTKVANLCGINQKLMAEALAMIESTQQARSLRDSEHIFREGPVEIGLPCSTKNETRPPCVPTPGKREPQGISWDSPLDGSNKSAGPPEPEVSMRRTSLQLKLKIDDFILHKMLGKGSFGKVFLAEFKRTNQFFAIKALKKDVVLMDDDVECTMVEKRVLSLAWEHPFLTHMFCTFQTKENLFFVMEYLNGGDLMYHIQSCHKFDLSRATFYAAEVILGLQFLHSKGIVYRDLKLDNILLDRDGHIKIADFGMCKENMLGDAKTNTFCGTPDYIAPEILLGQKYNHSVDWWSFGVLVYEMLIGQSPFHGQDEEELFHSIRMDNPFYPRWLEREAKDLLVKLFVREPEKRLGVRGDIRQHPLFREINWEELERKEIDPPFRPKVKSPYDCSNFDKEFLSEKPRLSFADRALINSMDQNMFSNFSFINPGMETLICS

[3] = target: T2, native (untagged) murine PKCε (Mus musculus, UniProt P16054); assay: FPCBA competition with probe 1, native PKCε in HEK293 cells; type: binding; parameters: For coexpression of full-length unmodified PKC proteins with mVenus as an independent marker; expressed in transfected cells; host or cells: HEK293 (transient, pIRES-mVenus); conditions: read-out: Cellular Ki for native PKCε (95% confidence interval); probe 1 400 nM, BIM1 2 μM, 2 h at 37° C.
T2 sequence (P16054 1-737): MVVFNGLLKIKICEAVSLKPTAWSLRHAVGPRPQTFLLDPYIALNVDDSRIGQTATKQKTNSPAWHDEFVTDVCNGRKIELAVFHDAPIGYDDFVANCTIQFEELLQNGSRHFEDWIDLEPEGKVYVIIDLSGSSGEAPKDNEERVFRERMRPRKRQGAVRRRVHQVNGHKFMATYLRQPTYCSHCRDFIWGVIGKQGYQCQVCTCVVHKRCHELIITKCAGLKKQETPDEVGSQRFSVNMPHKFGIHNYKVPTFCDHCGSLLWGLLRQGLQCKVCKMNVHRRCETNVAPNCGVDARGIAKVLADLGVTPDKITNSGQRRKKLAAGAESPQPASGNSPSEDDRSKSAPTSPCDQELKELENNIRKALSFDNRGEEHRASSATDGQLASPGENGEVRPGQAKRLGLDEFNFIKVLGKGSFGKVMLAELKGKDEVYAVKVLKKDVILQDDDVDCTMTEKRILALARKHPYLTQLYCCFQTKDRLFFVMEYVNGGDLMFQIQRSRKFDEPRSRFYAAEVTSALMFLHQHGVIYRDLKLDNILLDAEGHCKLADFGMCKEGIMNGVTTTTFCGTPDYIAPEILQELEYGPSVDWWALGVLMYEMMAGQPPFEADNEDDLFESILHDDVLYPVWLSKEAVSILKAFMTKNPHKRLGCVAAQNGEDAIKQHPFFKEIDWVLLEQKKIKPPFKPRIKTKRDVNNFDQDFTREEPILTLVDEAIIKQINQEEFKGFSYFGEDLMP

PKCη = PKCη (Homo sapiens, UniProt P24723); conditions: radiolabeled PDBu at 4° C.; read-out: Biochemical Ki, PKCη; cited from earlier work
[4] = target: native (untagged) murine PKCα (Mus musculus, UniProt P20444); assay: FPCBA saturation binding of probe 1, native PKCα (IRES-mVenus) in HEK293 cells
murine PKCγ-mVenus = murine PKCγ-mVenus (Mus musculus, UniProt P63318); assay: FPCBA saturation binding of probe 1, HEK293 cells expressing PKCγ-mVenus (Example 3)
[5] = target: native (untagged) murine PKCγ (Mus musculus, UniProt P63318); assay: FPCBA saturation binding of probe 1, native PKCγ (IRES-mVenus) in HEK293 cells
[6] = target: native (untagged) murine PKCη (Mus musculus, UniProt P23298); assay: FPCBA saturation binding of probe 1, native PKCη (IRES-mVenus) in HEK293 cells
Chain of native (untagged) murine PKCη (P23298 whole entry): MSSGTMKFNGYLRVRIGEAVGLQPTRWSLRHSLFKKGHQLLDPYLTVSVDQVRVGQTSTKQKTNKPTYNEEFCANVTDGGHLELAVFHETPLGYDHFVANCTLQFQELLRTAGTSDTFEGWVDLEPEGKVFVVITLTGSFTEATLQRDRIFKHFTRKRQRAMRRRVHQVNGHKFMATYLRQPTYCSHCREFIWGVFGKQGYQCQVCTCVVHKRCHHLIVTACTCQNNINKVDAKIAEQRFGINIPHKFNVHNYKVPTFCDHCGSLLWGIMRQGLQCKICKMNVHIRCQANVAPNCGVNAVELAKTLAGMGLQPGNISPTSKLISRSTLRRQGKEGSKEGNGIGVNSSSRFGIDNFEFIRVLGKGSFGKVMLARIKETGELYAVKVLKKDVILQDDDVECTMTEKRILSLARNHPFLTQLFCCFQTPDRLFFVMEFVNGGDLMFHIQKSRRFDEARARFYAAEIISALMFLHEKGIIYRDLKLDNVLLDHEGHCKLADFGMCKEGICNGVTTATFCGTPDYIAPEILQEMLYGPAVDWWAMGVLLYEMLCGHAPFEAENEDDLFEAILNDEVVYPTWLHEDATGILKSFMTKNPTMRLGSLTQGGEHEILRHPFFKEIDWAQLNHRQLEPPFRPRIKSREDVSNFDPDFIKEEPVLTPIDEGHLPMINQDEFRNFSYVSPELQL

[7] = target: T3, native (untagged) murine PKCβI (Mus musculus, UniProt P68404); assay: FPCBA saturation binding of probe 1, native PKCβI (IRES-mVenus) in HEK293 cells
T3 construct: For coexpression of full-length unmodified PKC proteins with mVenus as an independent marker; expressed in transfected cells; host or cells: HEK293 (transient, pIRES-mVenus)
T3 sequence (P68404 2-673 isoform P68404-2): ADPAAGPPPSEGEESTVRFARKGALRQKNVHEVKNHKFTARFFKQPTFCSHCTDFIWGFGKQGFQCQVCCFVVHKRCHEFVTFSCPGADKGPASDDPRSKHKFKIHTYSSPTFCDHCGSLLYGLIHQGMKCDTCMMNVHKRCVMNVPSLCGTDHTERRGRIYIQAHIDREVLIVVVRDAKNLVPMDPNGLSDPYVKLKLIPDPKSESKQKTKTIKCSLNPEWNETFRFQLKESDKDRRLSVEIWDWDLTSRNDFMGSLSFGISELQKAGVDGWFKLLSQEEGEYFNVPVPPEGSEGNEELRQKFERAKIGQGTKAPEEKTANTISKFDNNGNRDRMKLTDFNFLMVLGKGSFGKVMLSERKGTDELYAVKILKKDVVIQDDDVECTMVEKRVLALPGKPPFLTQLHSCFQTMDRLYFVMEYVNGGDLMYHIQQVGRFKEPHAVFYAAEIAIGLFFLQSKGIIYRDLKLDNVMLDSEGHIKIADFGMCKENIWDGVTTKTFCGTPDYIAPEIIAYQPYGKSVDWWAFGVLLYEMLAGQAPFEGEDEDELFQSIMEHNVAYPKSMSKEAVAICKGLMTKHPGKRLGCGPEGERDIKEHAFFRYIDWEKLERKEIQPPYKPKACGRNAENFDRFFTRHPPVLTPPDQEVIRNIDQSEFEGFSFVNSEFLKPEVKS
From the text: To measure the binding of 1 and 2 to PKCβI in cells, we used flow cytometry to analyze the blue fluorescence of transfected and non-transfected cells as a function of probe concentration at equilibrium (FIGS. 37A-37F). In these assays, we directly compared the PKCβI-mVenus fusion protein with native PKCβI expressed separately from mVenus. […] This low background signal facilitated saturation binding assays, where non-specific binding of probes to non-transfected cells was subtracted from total binding to highly transfected cells (P2 gate) to measure specific binding. […] We further compared cells treated with and without the orthosteric PKC catalytic inhibitor BIM1 to block the kinase activity of PKC and isolate the analysis of interactions of 1 and 2 with the C1 regulatory domains of PKCbI.

Jurkat cells = assay: Cellular viability assay, Jurkat lymphocytes, 48 h, flow cytometry (Example 2); type: cell-based
Method: The impact of membrane transporters on the toxicity profile of 49 was also studied.
Jurkat lymphocytes were seeded into a 96-well plate in fresh complete medium at 2.5×10^5 cells/mL and 200 μL per well. All compounds were serial diluted in DMSO and added to complete media to achieve a 1:1000 dilution factor (0.10% DMSO in each well). […] The total cell-count for each well was determined by flow cytometry and staining with propidium iodide was used to identify populations of live cells (only dead cells are stained by PI). Counts of viable cells for each treatment, determined in triplicate, were used to generate dose-response curves. These curves were fitted with non-linear regression using an inhibitor vs. response variable slope […] model (GraphPad Prism 9) to determine IC50 values.

[8] = test system: HEK293 cells expressing PKCβI-mVenus; assay: Kinetics of uptake of probes in HEK293 cells transiently transfected with PKCβI-mVenus; type: cell-based; conditions: probe 1 μM, room temperature, BIM1 2 μM, 4% FBS
Method: Cells were treated with probes and analyzed by flow cytometry. […] [BIM1]=2 μM. [FBS]=4%.
To investigate the potential for quantitative analysis of binding to PKCs expressed in cells, we evaluated whether 1-3 could readily achieve equilibrium, which is necessary for measurements of cellular equilibrium dissociation constants (Kd).
The cells were re-suspended in fresh reduced serum media lacking antibiotics (4% FBS) at a cell density of ˜500,000 cells per mL and were added to a 96-well plate (100 μL per well). […] Fluorescent probes were prepared as absorbance-normalized 1 mM DMSO stock solutions and diluted into reduced serum DMEM media lacking antibiotics (4% FBS) to achieve a final concentration of the probe of 1 μM ([…]). [BIM1]=2 μM. After addition of probes, cells were analyzed at room temperature every 5 min as singletons. Living cells with the greatest green fluorescence from expression of mVenus (top 20%, transfected) and the lowest green fluorescence (bottom 20%, non-transfected) were gated to obtain median PB450 values of uptake of the fluorescent probes. For the slower kinetics of uptake of probe 3, cells were analyzed every 20 min in triplicate. These curves were fitted with a one-phase association model (GraphPad Prism 9) to determine t1/2 values.

T1 sequence (P28867 whole entry): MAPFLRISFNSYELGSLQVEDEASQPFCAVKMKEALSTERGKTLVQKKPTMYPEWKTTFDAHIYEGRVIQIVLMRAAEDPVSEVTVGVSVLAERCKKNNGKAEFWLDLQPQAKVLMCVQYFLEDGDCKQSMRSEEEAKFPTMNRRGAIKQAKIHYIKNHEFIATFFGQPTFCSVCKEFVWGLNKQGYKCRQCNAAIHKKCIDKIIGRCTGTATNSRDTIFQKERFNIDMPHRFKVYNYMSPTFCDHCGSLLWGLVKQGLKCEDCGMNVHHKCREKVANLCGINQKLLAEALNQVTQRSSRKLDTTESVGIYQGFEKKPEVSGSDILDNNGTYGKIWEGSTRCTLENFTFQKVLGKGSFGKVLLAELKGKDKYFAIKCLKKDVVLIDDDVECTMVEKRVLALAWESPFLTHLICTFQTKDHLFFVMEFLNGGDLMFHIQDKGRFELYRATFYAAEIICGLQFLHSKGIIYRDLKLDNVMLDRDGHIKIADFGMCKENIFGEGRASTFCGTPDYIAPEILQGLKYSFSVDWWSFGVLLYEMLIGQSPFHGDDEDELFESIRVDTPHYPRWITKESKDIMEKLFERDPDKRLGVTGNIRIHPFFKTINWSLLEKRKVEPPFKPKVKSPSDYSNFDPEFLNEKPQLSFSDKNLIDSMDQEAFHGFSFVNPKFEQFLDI

SMILES	Ki [1]	Ki [2]	Ki [3]	Ki (PKCη)	Kd [4]	Kd (murine PKCγ-mVenus)	Kd [5]	Kd [6]	affinity of native untagged PKCβI relative to PKCβI-mVenus fusion [7]	Kd ([7]; IRES-mVenus, BIM1 2 μM, 2 h at 37° C., 4% FBS, read-out: Cellular Kd for probe, native PKCβI)	activity relative to 33 (Jurkat cells)	IC50 (Jurkat cells; Homo sapiens, Jurkat, read-out: toxicity towards Jurkat cells, IC50)	half-time (t1/2) of cellular uptake in transfected cells [8]
CCC/C=C/C=C/C(=O)O[C@H]1/C(=C/C(=O)OC)C[C@H]2C[C@H]([C@@H](C)O)OC(=O)C[C@H](O)C[C@@H]3C[C@H](OC(C)=O)C(C)(C)[C@](O)(C[C@@H]4C/C(=C/C(=O)OC)C[C@H](/C=C/C(C)(C)[C@]1(O)O2)O4)O3 [bryostatin 1]	20 nM	8 nM	16 nM	2.2 nM	–	–	–	–	–	–	–	–	–
CCCCCCN(CCCCCCCCCCCCNC(=O)c1cc2cc(F)c(O)c(F)c2oc1=O)C(=O)O[C@@]12[C@H](O)[C@@H](C)[C@@]3(O)[C@@H](C=C(CO)C[C@]4(O)C(=O)C(C)=C[C@@H]34)[C@@H]1C2(C)C [probe 1, (1aR,1bS,4aR,7aS,7bS,8R,9R,9aS)-4a,7b,9-trihydroxy-3-(hydroxymethyl)-1,1,6,8-tetramethyl-5-oxo-1,1a,1b,4,4a,5,7a,7b,8,9-decahydro-9aH-cyclopropa[3,4]benzo[1,2-e]azulen-9a-yl (12-(6,8-difluoro-7-hydroxy-2-oxo-2H-chromene-3-carboxamido)dodecyl)(hexyl)carbamate]	–	–	–	–	63 nM	391 ± 142 nM	211 ± 92 nM	177 nM	~2 fold	97 nM	> 20 fold	500 nM	4 min

Source: US20230146870A1, “METHOD TO QUANTIFY AFFINITY AND SELECTIVITY OF SMALL MOLECULES FOR PROTEINS IN LIVING CELLS” (Ohio State Innovation Foundation, priority 2021, published 2023)
